The subject of this assay is P388. In words: Cytotoxicity against mouse P388 cells. Format: functional, cell-based.

Compound `Cn1cnc(SC2=CC(=O)C=C3S[C@H]4C[C@@]23C2=C(N4)C(=O)c3[nH]cc4c3C2=NCC4)c1C[C@H](N)C(=O)O` [DISCORHABDIN K] had an IC50 greater than 8.2 µM. The compound `Cn1cnc(S[C@H]2[C@H]3C(=O)C=C4S[C@H]5C[C@]42C2=C(N5)C(=O)c4[nH]cc5c4C2=[N+]3CC5)c1C[C@H](N)C(=O)O` [DISCORHABDIN H] gave an IC50 greater than 8.2 µM.

With `Cn1cnc(S[C@@H]2[C@@H]3C(=O)C=C4S[C@@H]5C[C@@]42C2=C(N5)C(=O)c4[nH]cc5c4C2=[N+]3CC5)c1C[C@H](N)C(=O)O` [DISCORHABDIN H2], the half-inhibitory concentration (IC50) is greater than 8.2 µM. To `Cn1cnc(SC2=CC(=O)C=C3S[C@@H]4C[C@]23C2=C(N4)C(=O)c3[nH]cc4c3C2=NCC4)c1C[C@H](N)C(=O)O` [DISCORHABDIN K2] belongs greater than 8.2 µM.

Usually IC50 stands for the concentration that inhibits the measured activity by half. A lower IC50 goes with greater potency in that assay.

For the origin of these results see ChEMBL document CHEMBL1268861, “Isolation and characterization of diastereomers of discorhabdins H and K and assignment of absolute configuration to discorhabdins D, N, Q, S, T, and U” (J Nat Prod, 2010).
